Results published in ChEMBL document CHEMBL3585268, “Treatment of Cancer with NAMPT Inhibitors” (2015).

Legend:
Format in all cases: functional
[1] = test system: Mus musculus; assay: In vivo inhibition of NAMPT in human NCI-H1155 cells xenografted in Harlan nude mouse assessed as NAD+ level per mg of tissue at 16 mg/kg, po bid measured 7 hrs post second dose by LC-MS analysis (reference value: 20.08 to 57.97 pmol)
[2] = test system: Mus musculus; assay: In vivo inhibition of NAMPT in human NCI-H1155 cells xenografted in Harlan nude mouse assessed as NAD+ level per mg of tissue at 8 mg/kg, po bid measured 7 hrs post second dose by LC-MS analysis (reference value: 20.08 to 57.97 pmol)
[3] = test system: Mus musculus; assay: In vivo inhibition of NAMPT in human NCI-H1155 cells xenografted in Harlan nude mouse assessed as NAD+ level per mg of tissue at 32 mg/kg, po bid measured 7 hrs post second dose by LC-MS analysis (reference value: 20.08 to 57.97 pmol)
[4] = test system: Mus musculus; assay: In vivo inhibition of NAMPT in human A2780 cells xenografted in Harlan nude mouse assessed as NAD+ level per mg of tissue at 8 mg/kg, po bid measured 7 hrs post second dose by LC-MS analysis (reference value: 55.03 to 56.3 pmol)
[5] = test system: Mus musculus; assay: In vivo inhibition of NAMPT in human A2780 cells xenografted in Harlan nude mouse assessed as NAD+ level per mg of tissue at 16 mg/kg, po bid measured 7 hrs post second dose by LC-MS analysis (reference value: 55.03 to 56.3 pmol)
[6] = test system: Mus musculus; assay: In vivo inhibition of NAMPT in human A2780 cells xenografted in Harlan nude mouse assessed as NAD+ level per mg of tissue at 32 mg/kg, po bid measured 7 hrs post second dose by LC-MS analysis (reference value: 55.03 to 56.3 pmol)
[7] = test system: Mus musculus; assay: In vivo inhibition of NAMPT in human A2780 cells xenografted in Harlan nude mouse assessed as NAD+ level per mg of tissue at 5 mg/kg, po bid measured 7 hrs post second dose by LC-MS analysis (reference value: 55.03 to 56.3 pmol)
[8] = test system: Mus musculus; assay: In vivo inhibition of NAMPT in human A2780 cells xenografted in Harlan nude mouse assessed as NAD+ level per mg of tissue at 10 mg/kg, po bid measured 7 hrs post second dose by LC-MS analysis (reference value: 55.03 to 56.3 pmol)
[9] = test system: Mus musculus; assay: In vivo inhibition of NAMPT in human NCI-H1155 cells xenografted in Harlan nude mouse assessed as NAD+ level per mg of tissue at 5 mg/kg, po bid measured 7 hrs post second dose by LC-MS analysis (reference value: 20.08 to 57.97 pmol)
[10] = test system: Mus musculus; assay: In vivo inhibition of NAMPT in human NCI-H1155 cells xenografted in Harlan nude mouse assessed as NAD+ level per mg of tissue at 10 mg/kg, po bid measured 7 hrs post second dose by LC-MS analysis (reference value: 20.08 to 57.97 pmol)
[11] = test system: Mus musculus; assay: In vivo inhibition of NAMPT in human A2780 cells xenografted in Harlan nude mouse assessed as NAD+ level per mg of tissue at 20 mg/kg, po bid measured 7 hrs post second dose by LC-MS analysis (reference value: 55.03 to 56.3 pmol)
[12] = test system: Mus musculus; assay: In vivo inhibition of NAMPT in human NCI-H1155 cells xenografted in Harlan nude mouse assessed as NAD+ level per mg of tissue at 20 mg/kg, po bid measured 7 hrs post second dose by LC-MS analysis (reference value: 20.08 to 57.97 pmol)

| Structure (SMILES) | Activity [1] [pmol] | Activity [2] [pmol] | Activity [3] [pmol] | Activity [4] [pmol] | Activity [5] [pmol] | Activity [6] [pmol] | Activity [7] [pmol] | Activity [8] [pmol] | Activity [9] [pmol] | Activity [10] [pmol] | Activity [11] [pmol] | Activity [12] [pmol] |
| --- | --- | --- | --- | --- | --- | --- | --- | --- | --- | --- | --- | --- |
| COCCS(=O)(=O)Nc1ccc2c(c1)CCN(C(=O)COc1cccnc1)C2 | 1.98 | 5.19 | 0.84 | 3.97 | 6.52 | 6.38 |  |  |  |  |  |  |
| CC(C)(O)CS(=O)(=O)Nc1ccc2c(c1)CCN(C(=O)COc1cccnc1)C2 |  |  |  |  |  |  | 5.04 | 2.55 | 7.48 | 3.63 | 3.29 | 1.82 |
